Measured values published in patent publication US5141962A, “Amine compounds” (Roussel Uclaf, priority 1989, dated 1992).

Experiments:
female mice = assay: Antagonist effect vis-a-vis the analgesic activity of U-50488, hot plate test with mice; type: in vivo, mouse; details: hot plate 56° C., product of Example 1 20 mg/kg SC, U-50488 5 mg/kg SC, combination 5 + 20
male rats = assay: Antagonist effect vis-a-vis the diuretic activity of U-50488, action on diuresis; type: in vivo, rat; details: male rats fasted 16 h; product of Example 1 20 mg/kg SC, U-50488 5 mg/kg, combination 5 + 20 mg/kg; urine collected for one hour
dopamine receptor = target: T1, dopamine receptor (Rattus norvegicus, UniProt P61169); assay: Test of bonding to the dopamine receptor in vitro (3H spiroperidol); type: binding; details: rat striated bodies membranes, 0.15 nM 3H spiroperidol, pH 7.25 Krebs Tris buffer; read-out: IC50, displacement of 3H spiroperidol from dopamine receptor
T1 construct: prepared from the striated bodies of rats were used; from tissue; host or cells: rat striatum membranes
Experimental: (optionally for about 30 days) and prepared from the striated bodies of rats were used. The samples were suspended in pH 7.25 Krebs Tris buffer. […] The product was first tested at 5×10^-6 M, in triplicate. […] Incubation took place at 27° C. for 20 minutes, followed by returning to the water bath at 0° C. for 5 minutes, then vacuum filtering, rinsing with pH 7.7 Tris buffer, and the radioactivity was counted in the presence of a Triton scintillator.

mu opiate receptor = target: T2, mu opiate receptor (Rattus norvegicus, UniProt P33535); assay: Test of bonding to the mu opiate receptor in vitro (3H DAGO); type: binding; details: rat brain membranes, 1 nM 3H DAGO, 25° C. 40 minutes, pH 7.7 Tris buffer; read-out: IC50, displacement of 3H DAGO from mu opiate receptor
T2 construct: from the brains of rats were used; from tissue; host or cells: rat brain membranes

kappa opiate receptor [1] = target: T3, kappa opiate receptor (Cavia porcellus, UniProt P41144); assay: Test of the bonding to the kappa opiate receptor in vitro (3H ethylketocyclazocine); type: binding, guinea pig
T3 construct: Membrane samples prepared from the cerebellum of guinea pigs; from tissue; host or cells: guinea pig cerebellum membranes
Experimental: a) Test of the bonding to the kappa opiate receptor in vitro
Membrane samples prepared from the cerebellum of guinea pigs preserved at -30° C. (optionally for about 30 days) were used.
These samples were suspended in pH 7.7 Tris buffer. Fractions of 2 ml were allocated into hemolysis tubes and 1 nM of 3H ethylketocyclazocine and the product to be studied were added. The product was first tested in triplicate at 5×10^-6 M. When the tested product displaced more than 50% of the radioactivity bonded specifically to the receptor, it was tested again according to a range of 7 doses to determine the dose which inhibited 50% of the radioactivity bonded specifically to the receptor. Thus, the 50% inhibiting concentration was determined.
The non-specific bonding was determined by the addition of product known under the name U-50 488 H (Lahti et al. 1982, Life Sci. Vol. 31, p. 2257) at 10^-5 M in triplicate. Incubation took place at 25° C. for 40 minutes, followed by returning to the water bath at 0° C. for 5 minutes, then vacuum filtering, rinsing with pH 7.7 Tris buffer, and the radioactivity was counted in the presence of a Triton scintillator. The result was expressed directly as the 50% inhibiting concentration (IC50), that is to say as the concentration of studied product, expressed in nM, necessary to displace 50% of the radioactivity specifically bonded to the studied receptor.

kappa opiate receptor [2] = target: T3, kappa opiate receptor; assay: Test for distinction between agonist and antagonist on the kappa opiate receptor (3H diprenorphine, with or without NaCl and GTP); type: binding, guinea pig; details: for IC50: guinea pig cerebellum membranes, 0.3 nM 3H diprenorphine

T3 sequence (P41144 whole entry): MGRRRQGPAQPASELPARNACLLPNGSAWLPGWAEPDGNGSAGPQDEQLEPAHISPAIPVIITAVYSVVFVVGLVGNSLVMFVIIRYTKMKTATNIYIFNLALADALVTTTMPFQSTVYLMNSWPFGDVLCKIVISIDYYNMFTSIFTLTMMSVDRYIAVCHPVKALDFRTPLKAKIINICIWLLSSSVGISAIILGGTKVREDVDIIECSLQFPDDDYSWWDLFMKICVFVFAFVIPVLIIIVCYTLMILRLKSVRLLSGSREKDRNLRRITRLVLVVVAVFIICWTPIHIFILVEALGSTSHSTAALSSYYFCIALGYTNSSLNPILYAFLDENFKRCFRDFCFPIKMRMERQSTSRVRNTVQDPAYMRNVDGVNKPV
T2 sequence (P33535 whole entry): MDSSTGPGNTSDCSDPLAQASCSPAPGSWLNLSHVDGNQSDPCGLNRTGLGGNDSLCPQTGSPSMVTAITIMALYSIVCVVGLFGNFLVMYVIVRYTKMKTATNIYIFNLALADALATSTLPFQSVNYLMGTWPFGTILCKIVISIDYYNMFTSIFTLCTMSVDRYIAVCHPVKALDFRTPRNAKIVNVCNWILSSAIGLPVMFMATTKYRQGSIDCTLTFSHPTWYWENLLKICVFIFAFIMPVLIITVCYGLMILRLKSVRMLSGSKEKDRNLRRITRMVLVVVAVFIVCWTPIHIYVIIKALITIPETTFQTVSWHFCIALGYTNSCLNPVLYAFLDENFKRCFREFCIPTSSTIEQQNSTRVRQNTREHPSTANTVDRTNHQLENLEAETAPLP
T1 sequence (P61169 whole entry): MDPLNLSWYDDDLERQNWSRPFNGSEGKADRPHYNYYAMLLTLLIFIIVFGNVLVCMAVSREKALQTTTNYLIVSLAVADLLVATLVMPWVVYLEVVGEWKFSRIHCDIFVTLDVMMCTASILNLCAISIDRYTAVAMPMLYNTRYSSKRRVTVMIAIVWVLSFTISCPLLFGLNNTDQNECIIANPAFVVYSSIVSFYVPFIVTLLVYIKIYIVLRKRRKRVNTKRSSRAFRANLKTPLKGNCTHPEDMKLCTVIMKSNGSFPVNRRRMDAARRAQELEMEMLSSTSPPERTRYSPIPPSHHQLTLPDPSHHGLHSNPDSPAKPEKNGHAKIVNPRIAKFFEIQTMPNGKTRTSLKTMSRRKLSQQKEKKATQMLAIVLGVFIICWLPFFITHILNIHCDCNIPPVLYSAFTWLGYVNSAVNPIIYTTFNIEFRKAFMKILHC

CCCCCN(CCc1ccccc1)CCc1cccc(O)c1 [Product of example 1, N-pentyl-N-phenethyl-3-hydroxyphenethylamine]
Reaction time, m ± esm, 30 mn (female mice; 30 minutes after injection): 4.7 ± 0.6 s | Reaction time, m ± esm, 0 mn (female mice; initial time (0 mn)): 5.1 ± 0.1 s | Volume of urine excreted in 1 hour, m ± esm (male rats): 0.0067 ± 0.0002 L/kg | IC50 (dopamine receptor): 10600 nM | IC50 (mu opiate receptor): 840 nM | Affinity for kappa, mu and dopamine receptors (conclusion) (kappa opiate receptor [1]; conclusion from the kappa, mu and dopamine bonding tests): only has an affinity for the kappa opiate receptor | IC50 (kappa opiate receptor [1]; guinea pig cerebellum membranes, 1 nM 3H ethylketocyclazocine, 25° C. 40 minutes, pH 7.7 Tris buffer, read-out: IC50, displacement of 3H ethylketocyclazocine from kappa opiate receptor): 57 nM | Agonist or antagonist character on the kappa receptor (kappa opiate receptor [2]; conclusion from IC50 with and without NaCl/GTP): antagonist product of the kappa receptor | IC50 (kappa opiate receptor [2]; NaCl 100 mM, GTP 50 uM, read-out: IC50 in the presence of GTP and NaCl): 135 nM | IC50 (kappa opiate receptor [2]; without NaCl and GTP, read-out: IC50 in the absence of GTP and NaCl): 43 nM
